Format in all cases: physicochemical
Data set [1] is described as follows: Solubility of polymorphs I and II in water. The settings on record: for Solubility in water: at 20° C. in water.
The nature of data set [2]: Dissolution of the active compound during preparation of the pharmaceutical. As for the experimental part: Differences between the two monohydrates I and II were observed during dissolution of the active compound. In general, the time required to get monohydrate I into solution is 45 minutes at 40-50° C.
Data set [3] is described as follows: Stability on storage under ICH conditions. The source says: Three batches of monohydrate I and one batch of monohydrate II were stored under ICH conditions. […] No decomposition products were observed, and no other parameters of the specification were changed substantially. On storage, the batches maintained their solid state.
The mark [4] stands for this setting: 6 months at 40° C./75% relative atmospheric humidity.
Setting [5] is: 36 months at 25° C./60% relative atmospheric humidity.
[6] abbreviates: 36 months at 30° C./75% relative atmospheric humidity.

In turn, `O.O=C([O-])CN1CCN(CC(=O)[O-])CCN([C@H](CO)[C@H](O)CO)CCN(CC(=O)[O-])CC1.[Gd+3]` [monohydrate I] displayed a Solubility in water in data set [1] of 1081 ± 2 mg/mL. Besides, the “time required to get into solution” value in data set [2] (at 40-50° C.) worked out at 45 min. Further, the Stability on storage result in data set [3] (setting [4]), in data set [3] (setting [5]) and in data set [3] (setting [6]) was “remained unchanged” throughout.
Regarding `O.O=C([O-])CN1CCN(CC(=O)[O-])CCN([C@H](CO)[C@H](O)CO)CCN(CC(=O)[O-])CC1.[Gd+3]` [monohydrate II], the Solubility in water in data set [1] was determined as 922 ± 9 mg/mL. Moreover, the “dissolution state during the time monohydrate I needs” value in data set [2] (45 minutes at 40-50° C.) is on record as “incompletely dissolved”. Further, the Stability on storage entry in data set [3] (setting [4]), in data set [3] (setting [5]) and in data set [3] (setting [6]) was “remained unchanged” throughout.
Consider `O=C([O-])CN1CCN(CC(=O)[O-])CCN(C(CO)C(O)CO)CCN(CC(=O)[O-])CC1.[Gd+3]` (centres unmarked) [gadobutrol, Gd complex of N-(1-hydroxymethyl-2,3-dihydroxypropyl)-1,4,7-triscarboxymethyl-1,4,7,10-tetraazacyclododecane], for which the “Solubility in water (in words)” value in data set [1] (water) is on record as “soluble in water in almost any ratio”.
